# Reference: paper PMC6271202, “1,2-Substituted 4-(1H)-Quinolones: Synthesis, Antimalarial and Antitrypanosomal Activities in Vitro” (Molecules, 2014)
# Where two headings read alike, the source gives them in different places.
# Assays:
# [1] = system: T. b. rhodesiense STIB 900 strain; test: Antitrypanosomal assay in vitro (Alamar Blue); assay type: cell-based, Trypanosoma brucei rhodesiense; conditions: for IC50: Trypanosoma brucei, read-out: IC50 (µM) STIB900; for SI L-6/STIB900: selectivity index, quotient of cytotoxicity and antitrypanosomal IC50 values
# Procedure: (§1) The drug sensitive strain of P. falciparum (NF54) was obtained from Schipol Airport, The Netherlands. […] L-6 cells were derived from rat skeletal myoblasts.
# In vitro antitrypanosomal assay was carried out against the bloodstream form of T. b. rhodesiense STIB 900 strain using the Alamar Blue assay. The STIB 900 strain was suspended in fresh medium containing 1% MEM powder medium, MEM non-essential amino acids (100x) supplemented with 25 mM HEPES, additional glucose (1 g/L), 0.2 mM 2-mercaptoethanol, 1.0 mM sodium pyruvate and 15% heat inactivated horse serum. 50 µL (4 × 10^3 trypanosomes/mL) of this suspension was seeded in each well of the 96-well microtiter plate which contained test compounds and the positive control melarsoprol which were dissolved in DMSO and serially diluted to concentrations ranging from […]. The plates were incubated at 37 °C under 5% CO2 atmosphere for 70 h. Alamar Blue solution (10 µL) was added and incubation was continued for further 2–4 h. Plates were read with a Spectramax Gemini XS (Molecular Devices Cooperation, Sunnyvale, CA, USA) at EX/EM (536/588 nm). The IC50 values were calculated by linear regression from the sigmoidal dose inhibition curves using SoftmaxPro software. Tests were carried out two times in triplicate.
# P. falciparum NF54 = test: Antimalarial assay in vitro (3H-hypoxanthine microculture radioisotope technique); assay type: cell-based, Plasmodium falciparum; conditions: for IC50: Plasmodium falciparum, read-out: IC50 (µM) NF54; for SI L-6/NF54: selectivity index, quotient of L-6 cytotoxicity IC50 and NF54 IC50
# Procedure: as §1
# Antimalarial activity in vitro was determined by means of the microculture radioisotope technique which makes use of ^3H-hypoxanthine as an indicator of parasite viability. In this assay the drug sensitive NF54 strain was employed. Parasite cultures supplemented with HEPES (5.94 g/L), NaHCO3 (2.1 g/L), neomycin (100 U/mL), Albumax® (5 g/L) and washed human red cells A^+ at 2.5% haematocrit (0.3% parasitaemia) were incubated in RPMI 1640 medium without hypoxanthine and placed in the 96-well plates. Solutions of 4-(1H)-quinolone derivatives and the positive control chloroquine were dissolved in DMSO at 10 mg/mL and added to the first well followed by serial dilution to afford test concentrations ranging from 100 to 0.002 mg/L. After 48 h incubation at 37 °C, 4% CO2, 3% O2, 93% N2, ^3H-hypoxyanthine was added (0.5 µC/well) and then the plates were incubated further for 24 h under the same condition. The plates were freeze/thawed rapidly, harvested on glass fibre filters and dried. Radioactive hypoxanthine uptake was measured by scintillation counter. IC50 values were calculated from sigmoidal inhibition curves by linear regression using Microsoft Excel. Assays were carried out two times in triplicate.
# [2] = system: rat skeletal muscle cell (L-6); test: Cytotoxicity assay (Alamar Blue); assay type: cell-based; conditions: Myoblast, read-out: IC50 (µM) L-6
# Procedure: as §1
# 96-well plates were seeded with 100 µL of RPMI 1640 medium supplemented with 1% L-glutamine and 10% fetal bovine serum, and rat skeletal muscle cell (L-6) (4 × 10^3/mL). The 4-(1H)-quinolone derivatives and the positive control podophyllotoxin were dissolved in DMSO and with a serial dilution ranging from […] were added into the wells in triplicate. The plates were incubated for 70 h and assessed microscopically for cell growth. Alamar Blue solution (10 µL) was then added to each well and incubation continued for 2 h before reading with a Spectramax Gemini XS at EX/EM 536/588. The IC50 values were calculated by linear regression from the sigmoidal dose inhibition curves using SoftmaxPro software. Tests were carried out two times in triplicate.
# [3] = chloroquine sensitive strain P. falciparum NF54, 72 h total incubation
# [4] = bloodstream form T. b. rhodesiense STIB 900, 70 h incubation
# [5] = L-6 rat skeletal myoblasts, 70 h incubation
Compound,IC50 (P. falciparum NF54; [3]),"IC50 (P. falciparum NF54; NF54, 72 h)",IC50 ([1]; 70 h),SI L-6/NF54 (P. falciparum NF54),"IC50 [1, 4]",SI L-6/STIB900 [1],"IC50 [2, 5]","IC50 ([2]; Rattus norvegicus, 70 h)","loss in potency compared to 29 (P. falciparum NF54; antimalarial potency, P. falciparum NF54, hydrogenation of the alkenyl chain of 29)"
"Nc1nc(N)nc(Nc2ccc([As]3SCC(CO)S3)cc2)n1 (stereo not drawn) [Melarsoprol, reference compound]",,,0.0075 µM,,,,,,
"COc1cc([C@@H]2c3cc4c(cc3[C@H](O)[C@H]3COC(=O)[C@H]23)OCO4)cc(OC)c1OC [Podophyllotoxin, reference compound]",,,,,,,,0.017 µM,
"CCN(CC)CCCC(C)Nc1ccnc2cc(Cl)ccc12 (stereo not drawn) [Chloroquine, reference compound]",,0.0063 µM,,,,,,,
Cn1c(CCCCC=C2CCCCCC2)cc(=O)c2ccccc21 [Compound 31],10.1 µM,,,4.52,14.4 µM,3.19,45.8 µM,,
CCCCCCCCCCC#CCCc1cc(=O)c2ccccc2n1CC [Compound 36b],0.45 µM,,,29.82,16.6 µM,0.82,13.6 µM,,
"CC1=C(/C=C/c2cc(=O)c3ccccc3n2CCBr)C(C)(C)CCC1 [Compound 21, 1-(2-Bromoethyl)-2-[(1′E)-2′-(2′′,6′′,6′′-trimethyl-1′′-cyclohexen-1′′-yl)ethenyl]-4-(1H)-quinol-one]",1.99 µM,,,16.65,8.85 µM,3.76,33.2 µM,,
"CCCOc1ccc(/C=C/c2cc(=O)c3cc(Cl)ccc3n2C)cc1 [Compound 10b, 6-Chloro-1-methyl-2-[(1′E)-(4′′-propoxyphenyl)ethenyl]-4-(1H)-quinolone]",0.47 µM,,,342.89,21.9 µM,7.36,161 µM,,
CCCCCOc1ccc(/C=C/c2cc(=O)c3ccccc3n2CCBr)cc1 [Compound 11],1.56 µM,,,27.11,3.82 µM,11.10,42.4 µM,,
"CN1CCN(CCCCCCCCC/C=C/c2cc(=O)c3ccccc3n2C)CC1 [Compound 20, 1-Methyl-2-[(1′E)-11′(N-methylpiperazinyl)undecenyl]-4-(1H)-quinolone]",1.35 µM,,,24.14,4.94 µM,6.59,32.5 µM,,
"Cn1c(-c2ccc(CCCCCCCCCCN3CCCCC3)cc2)cc(=O)c2ccccc21 [Compound 5b, 1-Methyl-2-[4′-(10′′-piperidinyldecyl)phenyl]-4-(1H)-quinolone]",0.82 µM,,,11.73,3.41 µM,2.83,9.63 µM,,
"Cn1c(-c2ccc(CCCCCCBr)cc2)cc(=O)c2ccccc21 [Compound 5a, 1-Methyl-2-[4′-(6′′-bromohexyl)phenyl]-4(1H)-quinolone]",0.09 µM,,,,1.64 µM,4.04,6.63 µM,,
"CCCOc1ccc(/C=C/c2cc(=O)c3ccccc3n2CCBr)cc1 [Compound 10a, 1-(2-Bromoethyl)-2-[(1′E)-(4′′-propoxyphenyl)ethenyl]-4-(1H)-quinolone]",1.58 µM,,,16.45,1.25 µM,,25.8 µM,,

# Further lines, with some results ahead:
IC50 (P. falciparum NF54; [3]),"IC50 (P. falciparum NF54; NF54, 72 h)",Compound,IC50 ([1]; 70 h),SI L-6/NF54 (P. falciparum NF54),"IC50 [1, 4]",SI L-6/STIB900 [1],"IC50 [2, 5]","IC50 ([2]; Rattus norvegicus, 70 h)","loss in potency compared to 29 (P. falciparum NF54; antimalarial potency, P. falciparum NF54, hydrogenation of the alkenyl chain of 29)"
2.3 µM,,CCCCCCCCCC/C=C/c1cc(=O)c2ccccc2n1CCBr [Compound 18b],,16.69,8.28 µM,4.63,38.4 µM,,
1.19 µM,,CCCCCCCCCCCC/C=C/c1cc(=O)c2ccccc2n1CCC [Compound 18f],,10.99,19.1 µM,0.68,13 µM,,
15.3 µM,,CCCCCC/C=C\CCc1cc(=O)c2ccccc2n1C [Compound 28],,3.22,11 µM,4.48,49.5 µM,,
0.31 µM,,C=CCn1c(/C=C/CCCCCCCCCCCC)cc(=O)c2ccccc21 [Compound 18e],,45.78,8.18 µM,1.71,14 µM,,
0.69 µM,,Cn1c(/C=C/CCCCCCCCCBr)cc(=O)c2ccccc21 [Compound 19],,52.64,1.07 µM,,36.3 µM,,
6.4 µM,,CCCCCCCCCCCCCCCc1cc(=O)c2ccccc2n1C [Compound 30],,15.91,42.4 µM,2.39,101 µM,,16 fold
3.11 µM,,CCCCCCCCCCC#CCCc1cc(=O)c2ccccc2n1C [Compound 36a],,4.29,33.5 µM,0.39,13.3 µM,,
0.84 µM,,CCCCCCCCCCCCC#Cc1cc(=O)c2ccccc2n1C [Compound 35],,18.78,10.5 µM,1.50,15.8 µM,,
4.64 µM,,C#CCn1c(/C=C/CCCCCCCCCCCC)cc(=O)c2ccccc21 [Compound 18d],,5.32,24.5 µM,1.01,24.7 µM,,
2.29 µM,,CCCCCCCCCCCC/C=C/c1cc(=O)c2ccccc2n1CCCC [Compound 18g],,5.79,18.7 µM,0.70,13.3 µM,,
12.4 µM,,CCCCCCCCC/C=C/c1cc(=O)c2ccccc2n1C [Compound 18a],,3.61,52.2 µM,0.86,44.7 µM,,
0.39 µM,,CCCCCCCCCC=CCCCCc1cc(=O)c2ccccc2n1C [Compound 29],,33.84,10.8 µM,,13.2 µM,,
